# Data: ChEMBL document CHEMBL5370537, “Aporphines: A privileged scaffold in CNS drug discovery” (Eur J Med Chem, 2023)
# Tests used:
# [1] = Inhibition of neuronal excitability in mouse Primary neocortical neuron assessed as reduction in SCO frequency measured after 45 mins by FLIPR assay; format: functional, cell-based; details: 0.75 h
# [2] = Inhibition of neuronal excitability in mouse Primary neocortical neuron assessed as reduction in SCO amplitude measured after 45 mins by FLIPR assay; format: functional, cell-based; details: 0.75 h
# [3] = biological target: T1, 5-hydroxytryptamine receptor 1A (Homo sapiens, UniProt P08908); assay: Displacement of [3H]8-OH-DPAT from human 5-HT1A assessed as inhibition constant
# T1 sequence (P08908 whole entry): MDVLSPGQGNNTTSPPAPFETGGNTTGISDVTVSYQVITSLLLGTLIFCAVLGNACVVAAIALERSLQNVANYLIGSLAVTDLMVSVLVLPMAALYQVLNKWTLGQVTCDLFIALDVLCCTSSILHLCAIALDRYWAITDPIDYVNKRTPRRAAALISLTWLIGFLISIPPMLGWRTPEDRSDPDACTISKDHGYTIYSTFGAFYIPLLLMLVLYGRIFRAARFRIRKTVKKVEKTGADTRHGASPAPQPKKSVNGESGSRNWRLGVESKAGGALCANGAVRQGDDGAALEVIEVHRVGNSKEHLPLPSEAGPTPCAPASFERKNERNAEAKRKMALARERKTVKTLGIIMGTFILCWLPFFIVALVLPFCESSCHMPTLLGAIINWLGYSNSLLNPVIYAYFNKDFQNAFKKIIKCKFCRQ
# [4] = biological target: 5-hydroxytryptamine receptor 7 (Rattus norvegicus, UniProt P32305); assay: Displacement of [3H]5-HT from rat 5-HT7 assessed as inhibition constant
# Chain of 5-hydroxytryptamine receptor 7 (P32305 whole entry): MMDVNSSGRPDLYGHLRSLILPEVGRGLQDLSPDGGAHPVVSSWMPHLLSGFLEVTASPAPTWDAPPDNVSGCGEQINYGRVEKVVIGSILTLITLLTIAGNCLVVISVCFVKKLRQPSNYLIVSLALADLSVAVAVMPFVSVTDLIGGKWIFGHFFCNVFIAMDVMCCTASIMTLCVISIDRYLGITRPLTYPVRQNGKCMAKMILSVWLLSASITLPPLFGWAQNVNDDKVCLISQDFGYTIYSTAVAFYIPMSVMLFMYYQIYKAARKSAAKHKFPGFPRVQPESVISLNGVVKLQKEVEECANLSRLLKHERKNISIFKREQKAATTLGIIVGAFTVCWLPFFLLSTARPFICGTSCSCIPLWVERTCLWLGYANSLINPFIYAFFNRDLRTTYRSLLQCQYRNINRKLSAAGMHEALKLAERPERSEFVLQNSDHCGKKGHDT
Ki [3] [µM],Ki [4] [µM],Structure (SMILES),IC50 [1] [µM],IC50 [2] [µM]
,,COc1ccc2c(c1O)-c1c3c(cc4c1[C@H](C2)N(C)CC4)OCO3 [(S)-BULBOCAPNINE],11.6,12.9
0.0615,0.0069,CN1CCc2ccc3c4c2[C@H]1Cc1cccc(c1-4)[C@]3(C)O,,
